In PMC12236907, “A Natural Depsipeptide Antibiotic that Targets the E site of the Bacterial Ribosome” (Research Square, 2025):
Entries after “also recorded” stand apart in the source; their conditions may differ. Where a SMILES comes first, the peptide text is derived from it. Bridges are numbered along the chain shown (N, C = ends). [ ]: non-standard residue; d: D form. dOrn = NCCC[C@@H](N)C(=O)O

What was measured:
bacterial membrane = experiment: Membrane permeabilization (propidium iodide uptake and NPN assays); assay type: cell-based; conditions: E. coli BW25113; PI 4 μM up to 10×MIC (80 μg/ml), NPN 10 μM; 30 min, room temperature
Description: E. coli BW25113 cells were prepared according to the method for time-dependent killing and mixed with propidium iodide at a final concentration of 4 μM. A 190 μl aliquot of the cell suspension was added to the wells of a 96-well black-wall plate, followed by the addition of 10 μl of compounds at different concentrations up to 10×MIC (80 μg/ml). Colistin (5 μg/ml) was included as a positive control. Fluorescence was measured at an excitation/emission wavelength of 535/617 nm for 30 min at room temperature using a Synergy Microplate Reader (Biotek).
An overnight culture of E. coli BW25113 was subcultured into fresh MOPS minimal medium and allowed to grow until reaching mid-exponential phase. The culture was then diluted to an OD 600 of 0.1–0.2 in the same medium and supplemented with 10 μM NPN dye (prepared from a 20 mM stock solution in acetone). A volume of 190 μl of this cell suspension was combined with 10 μl of test compounds at various concentrations in a black 96-well plate. Water served as the vehicle control, as MKM-A was dissolved in water (adjust the vehicle accordingly based on the solubility of your compound). Colistin at 5 μg/ml was included as a positive control. Fluorescence was measured over a 30 min period at room temperature using a microplate reader, with readings taken every 0.5–1 min at an excitation/emission wavelength of 350/420 nm.

[1] = test system: bacteria with resistance mechanisms to other translation-inhibiting antibiotics; conditions: bacterial pathogens; unique site of action in the ribosome
E. coli ribosome = experiment: In vitro translocation assay; assay type: biochemical; conditions: mRNA MFK; 50 μM MKM or 250 μM negamycin; 1 μM E. coli ribosomes
Description: In vitro translocation assay was carried out using the model mRNA MFK (Supplementary Table 7) as described in the reference. The mRNA was prepared by in vitro transcription of a PCR product amplified using the primers MF_F1, MF_F2, and MF_R (Supplementary Table 6). A 4.5 μl reaction containing 1 μM E. coli ribosomes, 0.5 μM mRNA, 1 μM tRNAi^Met, 0.5 μM radiolabelled NV1 primer (Supplementary Table 6), 2 U/μl RiboLock RNase Inhibitor (Thermo), and antibiotic tested (50 μM MKM or 250 μM negamycin) in Pure System Buffer (PSB; 9 mM Mg(CH3COO)2, 5 mM K3PO4, 95 mM potassium glutamate, 5 mM NH4Cl, 0.5 mM CaCl2, 1 mM spermidine, 8 mM putrescine, 1 mM dithiothreitol, pH 7.3)[87] was incubated for 20 min at 37°C. Then N-acetyl-Phe-N-tRNAPhe, in which amino acid is attached to the tRNA’s A3’ hydroxyl via an amide bond, was added to the final concentration of 2 μM followed by 10 min incubation at 37°C. After addition of the E. coli EF-G and GTP to the final concentrations of 0.2 μM and 533 μM, respectively and incubation for 5 min at 30°C, 1 μl of the mixture of AMV reverse transcriptase (Roche) and dNTPs (2.1 U/μl AMV RT and 2 mM dNTPs in PSB) was added, and the reactions were incubated for another 5 min at 30°C. […]

[2] = test system: K. pneumoniae ATCC 33495 and C1559; experiment: C. elegans – K. pneumoniae in vivo antibiotic activity assay (survival); parameters: species or system K. pneumoniae in Caenorhabditis elegans
Description: A C. elegans double mutant strain, AU37 (glp-4(bn2);sek-1(km4)), was used for this assay due to its enhanced pathogen infection sensitivity and temperature-sensitive sterility. The infection protocol was carried out as previously described, with slight modifications to accommodate our experimental conditions. Standard C. elegans media and protocols were used for the maintenance and growth of worms. To summarize, eggs were collected from gravid adult worms by bleaching and incubated on solid agar plates at 25 °C for 48 hours, until early adulthood. Worms were thoroughly washed with M9 buffer and transferred onto LB agar plates containing lawns of infective K. pneumoniae and incubated for another 24 hours. Worms were then washed from plates and resuspended in M9 to an approximate 2 worm per microlitre concentration. A survival assay was conducted in a 96-well plate with experimental wells containing 15 μl of worms, 80 μl S-basal (5.85 g NaCl, 1 g K2HPO4, 6 g KH2PO4, 1 ml cholesterol (5 mg/ml in ethanol), H2O to 1 litre. Sterilize by autoclaving), and 5 μl of test compound. Plates were sealed with a porous film and incubated at 25°C for a total of 7 days. The number of dead worms were counted every 24 hours to generate a Kaplan-Meier survival curve.

E. coli BW25113 [3] = test system: E. coli BW25113
Klebsiella pneumoniae = experiment: Antimicrobial activity, Klebsiella pneumoniae; assay type: cell-based
ribosome = experiment: Ribosome profiling (Ribo-seq)
[4] = test system: E. coli strain SQ110ΔtolC::pZsbmA; conditions: agar with 4×MIC of MKM (32 μg/ml)
E. coli BW25113 [5] = experiment: Time-dependent killing assay, E. coli; assay type: cell-based; conditions: E. coli BW25113, MHB, 5×MIC (160 μg/ml), 37°C, 0-24 h; mean of three biological replicates
Description: E. coli BW25113 and Klebsiella pneumoniae C1559 were grown overnight in 5 ml of cation-adjusted Mueller-Hinton Broth. The cultures were then inoculated into fresh medium to achieve an OD600 of 0.1, corresponding to a concentration of 10^8 CFU/ml. […] Samples were taken at 0 h, 3 h, 6 h, and 24 h post-incubation, plated on MHA plates, and incubated for 20–24 hours at 37°C. Colony counts were used to determine the log reduction in CFU/ml, comparing treated strains to untreated control samples.

[6] = highly resistant mutants of E. coli BW25113 selected by passaging

## C[C@@H](O)[C@@H]1NC(=O)[C@@H](CCCNC(=N)N)NC(=O)[C@@H](CCCNC(=N)N)NC(=O)[C@@H](CC(N)=O)NC(=O)[C@@H](NC(=O)[C@@H](Cc2ccccc2)NC(=O)[C@@H](CCCN)NC(=O)[C@H](N)CCCNC(=N)N)[C@@H](C)OC(=O)[C@H](Cc2c[nH]cn2)NC1=O [MKM, manikomycin A] (H-[dR][dOrn][dF]T[dN][dR][dR]TH; ester 4-C)
Bacterial membrane
  membrane permeabilization / disruption: failed to permeabilize or distrupt the bacterial membrane
[1]
  sensitivity to resistance mechanisms against other translation inhibitors: insensitive to resistance mechanisms
E. coli ribosome
  inhibition of EF-G-dependent translocation: notably inhibited
[2]; MKM 64 μg/ml or polymyxin B 25 μg/ml, 6 days, vs DMSO, Log-rank (Mantel–Cox) test
  survival benefit in C. elegans (in words): significantly improved survival; also recorded: markedly improved survival
[2]; MKM 64 μg/ml, both infection models (ATCC 33495 and C1559), DMSO ~10% (ATCC 33495), ~30% (C1559), n > 60 worms per group
  nematodes alive by day 6: 55–60%
E. coli BW25113 [3]; deletion of genes encoding components of the transporter YejABEF
  increase in MIC: 2–8 fold
E. coli BW25113 [3]; [6]
  MIC: 512 to 1024 µg/mL
  increase in MIC over parental strain: 16- to 32 fold
Klebsiella pneumoniae
  antimicrobial activity: selective antimicrobial activity
ribosome; E. coli BL21ΔtolC, 50 μg/ml (25×MIC), 2 min
  metagene ribosome occupancy: increased ribosome occupancy at the early mRNA codons
ribosome; E. coli BL21ΔtolC, 50 μg/ml (25×MIC), 2 min, pLogo
  codon depletion at MKM-induced arrest sites: exclusion of Thr at the sites of MKM-induced arrest
ribosome; E. coli BL21ΔtolC, 50 μg/ml (25×MIC), 2 min, pLogo, sites with ≥5-fold higher occupancy
  codon enrichment at MKM-induced stalling sites: enrichment of Pro codons in the P and A sites
ribosome; ribosome profiling and toeprinting, Pro, Leu, Thr codons
  context specificity of action (summary): more efficiently inhibiting ribosomes translating Pro and Leu codons and exhibiting less effect on those translating Thr codons
[4]
  frequency of resistant colonies: ~ 10^−7
E. coli BW25113 [5]
  time-kill effect: bactericidal
